According to patent US11680086B2, “Lipopeptide for potently inhibiting HIV, derivative thereof, pharmaceutical composition thereof and use thereof” (Institute of Pathogen Biology, Chinese Academy of Medical …, priority 2017, dated 2023):
Peptide text beside a SMILES is read from it. * marks the point of attachment. Stearoyl = CCCCCCCCCCCCCCCCCC(=O)*; Palmitoyl = CCCCCCCCCCCCCCCC(=O)*

Legend:
[1] = tested on: HXB2-mediated cell fusion (HL2/3 effector cells, TZM-b1 target cells); format: cell-based, HIV-1; conditions: HXB2-mediated cell fusion
Protocol: HIV-1 mediated cell fusion inhibition assay: the effector cells (HL2/3 cells) and target cells (TZM-b1 cells) were provided by the AIDS Reagent Program of National Institutes of Health (NIH) (catalog numbers: 1294 and 8129, respectively). The both cells were adherent cells and were cultured in a DMEM cell culture medium containing ampicillin/streptomycin double antibiotics and 10% fetal bovine serum (FBS). The TZM-b1 was first added to a 96-well cell culture plate (1×10^4 cells/well), and cultured overnight at 37° C. and 5% CO2. The test substance was diluted with the DMEM cell culture medium by 3 folds and mixed with HL2/3 effector cells (3×10^4 cells/well), then added to the TZM-b1 target cells, and further cultured for 6 hours to fully fuse. The activity of luciferase (relative fluorescence units, RLU) was then determined using a luciferase reporter gene kit from Promega company according to the instructions. The inhibition rate of each sample at each concentration was calculated, and the half effective inhibitory concentration (IC50 value) was calculated using GraphPad Prism Software 2.01.

[2] = pharmacokinetic analysis in SD rats; conditions: for level at 72 h / level at time molar at 72 h: both, SD, rat, serum, 6 mg/kg
Protocol: The pharmacokinetic parameters were calculated using a non-compartmental analysis model (NCA).

SHIV strain SF162P3 = assay: therapeutic effect in monkey infection model; format: in vivo, Chinese rhesus monkeys
Protocol: Six adult Chinese rhesus monkeys (numbered A to F, half male and half female) were used in the test, and antibodies to SIV, herpesvirus B, and simian T-lymphotropic virus were determined to be negative. The SHIV strain SF162P3 was provided by the AIDS Reagent Program of NIH in the United States, and was amplified on peripheral blood mononuclear cells (PBMC) of the monkeys, and the TCID50 was determined. Monkeys were intravenously inoculated with 1,000 TCID50 of the SF162P3 virus, and changes in plasma viral load (RNA copy number/ml) in the monkeys were measured periodically. […] The plasma samples were isolated from monkey bloods collected at predetermined time points and the plasma viral load (RNA copy number/ml) was determined by quantitative real-time reverse transcription-polymerase chain reaction (qRT-PCR). The plasma RNA was extracted by a conventional method and cDNA samples were synthesized by reverse transcription reaction. […] The PCR device used was PE AB17500. The sensitivity of the assay was 100 RNA copies per milliliter of plasma sample.

Figure 9 = assay: Figure 9
From the text: Table printed on a drawing sheet, Figure 9
First reader's note: Panel B of Figure 9; each value cell holds the value ± its error, and each column is one route of administration.

Structure (SMILES)	inhibitory activity further improved, folds ([1]; relative to LP-50)	inhibitory activity as folds of that of T-20 ([1]; relative to T-20) [folds]	serum concentration as folds of the IC50 value (2 pM) ([2]; 72 hours after intravenous injection) [folds]	serum concentration as folds of the IC50 value (2 pM) ([2]; 72 hours after subcutaneous injection) [folds]	level at 72 h ([2]; iv) [ng/mL]	level at time molar at 72 h ([2]; iv) [nM]	level at 72 h ([2]; sc) [ng/mL]	level at time molar at 72 h ([2]; sc) [nM]	monkeys with viral load decreased below the detectable level line (SHIV strain SF162P3; 2 mg/kg s.c. once a day, fourth day after the treatment, six monkeys)	rebound of virus (SHIV strain SF162P3; 4th day after administration was stopped)	rebound of virus (SHIV strain SF162P3; 10th day after administration was stopped)	monkeys with viral load not detected (SHIV strain SF162P3; 14th day after the treatment)	rebound of virus (SHIV strain SF162P3; 17th day after administration was stopped)	rebound of viral load (SHIV strain SF162P3; 24th day after administration was stopped)	therapeutic effect (in words) (SHIV strain SF162P3; SHIV SF162P3 infected rhesus monkeys)	viral load during subsequent treatment (SHIV strain SF162P3; administration once per 4 days for 4 weeks)	monkeys with viral load not detected (SHIV strain SF162P3; eighth day after the treatment)	Fabs | % (Figure 9) [%]
CCCCCCCCCCCCCCCC(=O)NCCCC[C@H](NC(=O)[C@H](CCC(=O)O)NC(=O)[C@H](CC(C)C)NC(=O)[C@H](CCCCN)NC(=O)[C@H](CCCCN)NC(=O)[C@H](CC(C)C)NC(=O)[C@H](CCC(=O)O)NC(=O)[C@H](CCC(=O)O)NC(=O)[C@H](CCC(=O)O)NC(=O)[C@H](CC(N)=O)NC(=O)[C@H](CCCCN)NC(=O)[C@H](CCCCN)NC(=O)[C@H](CCC(N)=O)NC(=O)[C@H](CCC(N)=O)NC(=O)[C@H](CCC(=O)O)NC(=O)[C@H](CCC(=O)O)NC(=O)[C@H](C)NC(=O)[C@H](CCCCN)NC(=O)[C@H](CCCCN)NC(=O)[C@H](CC(C)C)NC(=O)[C@H](CC(C)C)NC(=O)[C@H](CCC(=O)O)NC(=O)[C@H](CCC(=O)O)NC(=O)[C@@H](NC(=O)[C@H](CCCCN)NC(=O)[C@H](CCC(N)=O)NC(=O)[C@H](CCC(=O)O)NC(=O)[C@H](Cc1c[nH]c2ccccc12)NC(C)=O)[C@@H](C)CC)C(N)=O [LP-52] (Ac-WEQKIEELLKKAEEQQKKNEEELKKLEK(Palmitoyl)-NH2)	about 2 folds	1859																
CCCCCCCCCCCCCCCCCC(=O)NCCCC[C@H](NC(=O)[C@H](CCC(=O)O)NC(=O)[C@H](CC(C)C)NC(=O)[C@H](CCCCN)NC(=O)[C@H](CCCCN)NC(=O)[C@H](CC(C)C)NC(=O)[C@H](CCC(=O)O)NC(=O)[C@H](CCC(=O)O)NC(=O)[C@H](CCC(=O)O)NC(=O)[C@H](CC(N)=O)NC(=O)[C@H](CCCCN)NC(=O)[C@H](CCCCN)NC(=O)[C@H](CCC(N)=O)NC(=O)[C@H](CCC(N)=O)NC(=O)[C@H](CCC(=O)O)NC(=O)[C@H](CCC(=O)O)NC(=O)[C@H](C)NC(=O)[C@H](CCCCN)NC(=O)[C@H](CCCCN)NC(=O)[C@H](CC(C)C)NC(=O)[C@H](CC(C)C)NC(=O)[C@H](CCC(=O)O)NC(=O)[C@H](CCC(=O)O)NC(=O)[C@@H](NC(=O)[C@H](CCCCN)NC(=O)[C@H](CCC(N)=O)NC(=O)[C@H](CCC(=O)O)NC(=O)[C@H](Cc1c[nH]c2ccccc12)NC(C)=O)[C@@H](C)CC)C(N)=O [LP-80] (Ac-WEQKIEELLKKAEEQQKKNEEELKKLEK(Stearoyl)-NH2)			1010.56	894.51	7.75	2.02	6.86	1.79	three of the six monkeys	did not rebound	one of the monkeys (monkey A)	all six monkeys	the other 5 monkeys except the monkey C	all monkeys	powerful antiviral therapeutic effect	controlled below the detectable level line	five monkeys	39.53
